# Results: ChEMBL document CHEMBL1255420, “Fluoroquinolone resistance in Streptococcus dysgalactiae subsp. equisimilis and evidence for a shared global gene pool with Streptococcus pyogenes” (2010)
# Assays:
# [1] = system: Streptococcus dysgalactiae subsp. equisimilis; assay: Antibacterial activity against gyrA03, parC08 allele containing Streptococcus dysgalactiae subsp. equisimilis with GyrA E85K, S79F mutant by CLSI […] method; format: functional
# [2] = system: Streptococcus dysgalactiae subsp. equisimilis; assay: Antibacterial activity against gyrA04, parC15 allele containing Streptococcus dysgalactiae subsp. equisimilis with GyrA S81F, S79F/ParC N91D mutant by CLSI […] method; format: functional
# [3] = system: Streptococcus dysgalactiae subsp. equisimilis; assay: Antibacterial activity against gyrA01, parC03 allele containing Streptococcus dysgalactiae subsp. equisimilis with GyrA S79P mutant by CLSI […] method; format: functional
# [4] = system: Streptococcus dysgalactiae subsp. equisimilis; assay: Antibacterial activity against gyrA03, parC10 allele containing Streptococcus dysgalactiae subsp. equisimilis with GyrA E85K/ParC D83G mutant by CLSI […] method; format: functional
# [5] = system: Streptococcus dysgalactiae subsp. equisimilis; assay: Antibacterial activity against gyrA04, parC allele containing Streptococcus dysgalactiae subsp. equisimilis with GyrA S81F, S79F mutant by CLSI […] method; format: functional
# [6] = system: Streptococcus dysgalactiae subsp. equisimilis; assay: Antibacterial activity against gyrA05, parC05 allele containing Streptococcus dysgalactiae subsp. equisimilis with GyrA D142N mutant by CLSI […] method; format: functional
# [7] = system: Streptococcus dysgalactiae subsp. equisimilis; assay: Antibacterial activity against gyrA01, parC allele containing Streptococcus dysgalactiae subsp. equisimilis by CLSI […] method; format: functional
# [8] = system: Streptococcus dysgalactiae subsp. equisimilis; assay: Antibacterial activity against gyrA01, parC14 allele containing Streptococcus dysgalactiae subsp. equisimilis with ParC N91D mutant by CLSI […] method; format: functional
# [9] = system: Streptococcus dysgalactiae subsp. equisimilis; assay: Antibacterial activity against gyrA04, parC17 allele containing Streptococcus dysgalactiae subsp. equisimilis with GyrA S81F, S79F/ParC N91D, P140S mutant by CLSI […] method; format: functional
# [10] = system: Streptococcus dysgalactiae subsp. equisimilis; assay: Antibacterial activity against gyrA04, parC14 allele containing Streptococcus dysgalactiae subsp. equisimilis with GyrA S81F/ParC N91D mutant by CLSI […] method; format: functional
# [11] = system: Streptococcus dysgalactiae subsp. equisimilis; assay: Antibacterial activity against gyrA03, parC06 allele containing Streptococcus dysgalactiae subsp. equisimilis with GyrA E85K, S79Y mutant by CLSI […] method; format: functional
# [12] = system: Streptococcus dysgalactiae subsp. equisimilis; assay: Antibacterial activity against gyrA04, parC13 allele containing Streptococcus dysgalactiae subsp. equisimilis with GyrA S81F, S79A mutant by CLSI […] method; format: functional
# [13] = system: Streptococcus dysgalactiae subsp. equisimilis; assay: Antibacterial activity against gyrA04, parC09 allele containing Streptococcus dysgalactiae subsp. equisimilis with GyrA S81F/ParC D83N mutant by CLSI […] method; format: functional
# [14] = system: Streptococcus dysgalactiae subsp. equisimilis; assay: Antibacterial activity against gyrA01, parC04 allele containing Streptococcus dysgalactiae subsp. equisimilis with GyrA S79F mutant by CLSI […] method; format: functional
# [15] = system: Streptococcus dysgalactiae subsp. equisimilis; assay: Antibacterial activity against gyrA01, parC17 allele containing Streptococcus dysgalactiae subsp. equisimilis with GyrA S79F, S79F/ParC N91D, P140S mutant by CLSI […] method; format: functional
# [16] = system: Streptococcus dysgalactiae subsp. equisimilis; assay: Antibacterial activity against gyrA01, parC12 allele containing Streptococcus dysgalactiae subsp. equisimilis with ParC G166E mutant by CLSI […] method; format: functional
# [17] = system: Streptococcus dysgalactiae subsp. equisimilis; assay: Antibacterial activity against gyrA02, parC17 allele containing Streptococcus dysgalactiae subsp. equisimilis with GyrA S81Y, S79F/ParC N91D, P140S mutant by CLSI […] method
# [18] = system: Streptococcus dysgalactiae subsp. equisimilis; assay: Antibacterial activity against gyrA01, parC19 allele containing Streptococcus dysgalactiae subsp. equisimilis with GyrA S79A/ParC N91D, P140S mutant by CLSI […] method; format: functional
# [19] = system: Streptococcus dysgalactiae subsp. equisimilis; assay: Antibacterial activity against gyrA01, parC allele containing Streptococcus dysgalactiae subsp. equisimilis with ParC N91D, P140S mutant by CLSI […] method; format: functional
smiles,measurement,setting,value
C[C@H]1COc2c(N3CCN(C)CC3)c(F)cc3c(=O)c(C(=O)O)cn1c23.C[C@H]1COc2c(N3CCN(C)CC3)c(F)cc3c(=O)c(C(=O)O)cn1c23.O [LEVOFLOXACIN],MIC,[1],> 32 µg/mL
same,MIC,[2],> 32 µg/mL
same,MIC,[3],0.75 µg/mL
same,MIC,[4],8 µg/mL
same,MIC,[5],> 32 µg/mL
same,MIC,[6],0.38 µg/mL
same,MIC,[7],0.38 µg/mL
same,MIC,[8],0.5 µg/mL
same,MIC,[9],> 32 µg/mL
same,MIC,[10],4 µg/mL
same,MIC,[11],> 32 µg/mL
same,MIC,[12],12 µg/mL
same,MIC,[13],> 8 µg/mL
same,MIC,[14],3 µg/mL
same,MIC,[15],1.5 µg/mL
same,MIC,[16],1 µg/mL
same,MIC,[17],> 32 µg/mL
same,MIC,[18],2 µg/mL
same,MIC,[19],0.19 µg/mL
